# Measurements taken from patent US20120141448A1, “Method for increasing muscle mass and strength” (priority 2010, published 2012).
# Tests used:
# [1] = test system: known non-responder to creatine supplementation; experiment: Creatine non-responder MP: three-week strength training program, total body weight and total strength; assay type: in vivo, human; conditions: subject two
# Description: B. patient two, 185 cm tall, also a known non-responder to creatine supplementation, followed a three-week strength training program while testing whether supplementation with PA-enriched-lecithin improves creatine response. Total starting total body weight and strength were measured on day one, followed by the training program, consisting of concentric and eccentric isotonic lifting exercises that worked the upper and lower body muscle groups with either free weights or weight machines used once or twice weekly. Strength training was performed three times per week with at least one day of rest between sessions, which alternated between lower and upper body exercises. During the three-week period, a total of […] were performed. Each exercise included two sets of ten repetitions at 40% and 65% 1RM, followed by two sets of 3 to 5 repetitions at 90% 1RM.
# The lower body exercise included seven different exercises: seated leg press, leg curls, standing calf raises, leg extension, inclined leg lift, inverted situps (back extension) and 45° inclined situps. The upper body exercise consisted of seven different exercises: bench press, latissimus pulldown, triceps pulldown, inclined dumbbell curls, seated preacher curls, seated rows, and CyBec Pec Fly. Total upper and lower body weight lifted were calculated as the average weight lifted during the last three sets multiplied by the average repetition in each set. Total strength was determined as the combined lower and upper total weight lifted. […] Strength was measured on days 1 and 22.
# A four-week rest period followed the first three-week training program. The same program was repeated twice, the control was supplemented with creatine monohydrate (Creapure®, Alzchem, Germany) 5 grams per day of five grams creatine monohydrate for 21 days. During the second program, creatine monohydrate was given as for the control program with the addition of 1 gram per day PA-enriched lecithin (Chemi Nutra, White Bear Lake, Minn.) which was about 50% PA.
# [2] = test system: known non-responder to creatine supplementation; experiment: Creatine non-responder RJ: two-week strength training program, total body weight and total strength; assay type: in vivo, human; conditions: subject one
# Description: A. patient one, 198 cm tall, a known non-responder to creatine supplementation, followed a two-week strength training program while testing whether supplementation with PA-enriched-lecithin improves creatine response. Total starting total body weight and strength were measured on day one, followed by the training program, consisting of concentric and eccentric isotonic lifting exercises that worked the upper and lower body muscle groups. Either free weights or weight machines were used once or twice weekly. Strength training was performed three times per week with at least one day of rest between sessions, which alternated between lower and upper body exercises. During the two-week period, a total of six training sessions (three upper and three lower) were performed. Each exercise included two sets of ten repetitions at 30% and 60% 1RM, followed by two sets of 3 to 5 repetitions at 90% 1RM.
# The lower body exercise included seven different exercises: seated leg press, leg curls, standing calf raises, leg extensions, inclined leg lift, inverted situps (back extension) and 45° inclined situps. The upper body exercise consisted of seven different exercises: bench press, latissimus pulldown, triceps pulldown, inclined dumbbell curls, seated preacher curls, seated rows, and CyBec Pec Fly.
# Total upper and lower body weight lifted were calculated as the average weight lifted during the last three sets multiplied by the average repetition in each set. Total strength was determined as the combined lower and upper total weight lifted. Total body weight was determined after day 8 and day 15. Strength was measured on days 1 and 15.
# A four-week rest period followed the first two-week training program. The same program was repeated twice, the control was supplementation of creatine monohydrate (Creapure, Alzchem, Germany) 4 times 5 grams per day for five days of loading, followed by nine days of five grams creatine monohydrate. During the second program, creatine monohydrate was given as for the control program with the addition of PA-enriched lecithin (Chemi Nutra, White Bear Lake, Minn.) which was about 50% PA.
smiles,measurement,setting,value
"CN(CC(=O)O)C(=N)N.O [Creatine Supplement, creatine monohydrate]","weight, day 1",[1]; day 1 of three-week program,81.9 kg
same,total strength increase,[1]; day 1 vs day 22,5%
same,"weight, day 10",[1]; day 10 of three-week program,81.5 kg
same,"weight, day 22",[1]; day 22 of three-week program,81.2 kg
same,effect on body weight,[1]; three-week program,not effective in preventing a slight weight loss
same,"weight, day 1",[2]; day 1 of two-week program,88.8 kg
same,total strength increase,[2]; day 1 vs day 15,5%
same,"weight, day 8",[2]; day 8 of two-week program,88.3 kg
same,"weight, day 15",[2]; day 15 of two-week program,88.0 kg
same,effect on body weight,[2]; two-week program,not effective in preventing a slight weight loss
